From PubChem BioAssay (NCI) come the findings set out here.

Some test systems named below: HCT-15 colon; IGROV1 ovarian; MOLT-4 leukemia; OVCAR-4 ovarian; SW-620 colon; NCI-H226 lung; SK-MEL-2 melanoma; SN12C renal; UACC-62 melanoma; LOX IMVI melanoma.
Holding throughout (experiment): NCI-60 cell line screen, 48 h

“And” between values parts separate entries of the source, which are not always exact repeats. Equal entries are not always repeated.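 Five concentrations, 48 hours, 96-well plates. At the GI50, growth is halved. At the TGI there is no net growth.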

In the case of `Cc1c(NC(=O)CCCl)c(=O)oc2c(C)c3occc(=O)c3cc12`, the TGI in the assay with HCT-15 colon, in the assay with IGROV1 ovarian, in the assay with MOLT-4 leukemia, in the assay on OVCAR-4 ovarian and with SW-620 colon was > 100 µM throughout.

For the molecule `C[CH2][Sn]1([CH2]C)[O]C2C(O)OC(CO)C(O)C2[O]1` (centres undefined), the GI50 in the assay on HCT-15 colon was 60.3 µM; in the assay with IGROV1 ovarian, 38.7 µM; with MOLT-4 leukemia, 12.8 µM; in the assay with NCI-H226 lung, 13.2 µM; in the assay on OVCAR-4 ovarian, 14.8 µM; in the assay with SK-MEL-2 melanoma, 35.5 µM. Further, the GI50 in the assay with SN12C renal was 4.55 µM; in the assay with SW-620 colon, 20.2 µM; in the assay on UACC-62 melanoma, 17.9 µM. The TGI was > 100 µM in the assay with HCT-15 colon; > 100 µM in the assay with IGROV1 ovarian; 40.5 µM in the assay with MOLT-4 leukemia; 26.1 µM in the assay on NCI-H226 lung; 36.9 µM in the assay with OVCAR-4 ovarian; > 100 µM with SK-MEL-2 melanoma. For the same molecule, the values for the TGI in the assay with SN12C renal, in the assay on SW-620 colon and in the assay with UACC-62 melanoma were 26.5 µM, 46.4 µM and 39.6 µM, respectively.

Regarding `CCOC(=O)CC(=O)N(c1ccc(OC)cc1)C(C(=O)OC)c1ccccc1` (centres undefined), the TGI with HCT-15 colon, with IGROV1 ovarian, in the assay on LOX IMVI melanoma, in the assay on SK-MEL-2 melanoma, with SN12C renal and with SW-620 colon was > 100 µM each time. In the assay with UACC-62 melanoma, the TGI is > 100 µM.

With `Cc1ccc(NC(=O)C2C(=O)C(=O)N(c3ccc(C)cc3)C2=O)cc1` (centres undefined), the TGI in the assay with HCT-15 colon, in the assay on IGROV1 ovarian, in the assay with MOLT-4 leukemia, in the assay with OVCAR-4 ovarian, with SK-MEL-2 melanoma and with SN12C renal was > 100 µM in each case. The TGI in the assay with SW-620 colon and with UACC-62 melanoma was > 100 µM each time.

In the case of `O=S(=O)(c1ccc2c(c1)C(=NO)c1cc(S(=O)(=O)N3CCCCC3)ccc1-2)N1CCCCC1`, the GI50 with HCT-15 colon was 0.914 µM and 0.173 µM; in the assay on IGROV1 ovarian it was 0.131 µM and 0.0732 µM; in the assay with MOLT-4 leukemia, 0.204 µM and 0.215 µM; in the assay on NCI-H226 lung it was 0.292 µM and 0.106 µM; with OVCAR-4 ovarian it was 0.195 µM and 0.0636 µM; in the assay with SK-MEL-2 melanoma, > 1 µM and 0.176 µM. Besides, the GI50 in the assay with SN12C renal was 0.208 µM and 0.144 µM; in the assay with SW-620 colon, 0.197 µM and 0.0743 µM; with UACC-62 melanoma, 0.227 µM and 0.174 µM. The TGI in the assay with HCT-15 colon was > 1 µM and 0.323 µM; with IGROV1 ovarian it was 0.494 µM and 0.213 µM; in the assay on MOLT-4 leukemia, 0.433 µM and 0.832 µM; with NCI-H226 lung, 0.936 µM and 0.298 µM; in the assay on OVCAR-4 ovarian it was 0.426 µM and 0.143 µM; in the assay with SK-MEL-2 melanoma, > 1 µM and 0.331 µM. Moreover, the TGI is 0.438 µM and 0.28 µM in the assay on SN12C renal; 0.437 µM and 0.174 µM in the assay with SW-620 colon; 0.612 µM and 0.329 µM in the assay on UACC-62 melanoma.

As for `Oc1c(Cl)cc(C(c2cc(Cl)c(O)c(Cl)c2)C(c2cc(Cl)c(O)c(Cl)c2)c2cc(Cl)c(O)c(Cl)c2)cc1Cl`, the GI50 with HCT-15 colon is 2.57 µM; in the assay with IGROV1 ovarian, 5.29 µM; in the assay with NCI-H226 lung, 25.7 µM; in the assay on OVCAR-4 ovarian, 7.11 µM; in the assay on SK-MEL-2 melanoma, 2.92 µM; in the assay with SN12C renal it was 2.41 µM. For the same molecule, the GI50 with SW-620 colon is 6.6 µM; with UACC-62 melanoma it was 3 µM. The TGI with HCT-15 colon turned out to be 13.7 µM; with IGROV1 ovarian, 16.8 µM; with OVCAR-4 ovarian it was 94.4 µM; in the assay on SK-MEL-2 melanoma it was 7.33 µM; in the assay on SN12C renal, 8.99 µM; in the assay with SW-620 colon, 23 µM. Also, the TGI in the assay with UACC-62 melanoma was 12.5 µM.

Regarding `O=[n+]1cnn([O-])c2ccccc21`, the TGI with HCT-15 colon is 35.6 µM; with IGROV1 ovarian it was 28.5 µM; in the assay on LOX IMVI melanoma, > 100 µM; in the assay on MOLT-4 leukemia, > 100 µM; in the assay on NCI-H226 lung it was > 100 µM; with SK-MEL-2 melanoma, 96.2 µM. Besides, the TGI was > 100 µM in the assay on SN12C renal, 46.1 µM in the assay on SW-620 colon and 39.4 µM with UACC-62 melanoma.

Consider `CC1C(=O)CCC1C(Sc1ccccc1)(Sc1ccccc1)Sc1ccccc1` (centres undefined), for which the TGI with HCT-15 colon is > 100 µM; in the assay on IGROV1 ovarian it was 78.4 µM; in the assay on LOX IMVI melanoma it was 68.5 µM; in the assay with MOLT-4 leukemia, 37.9 µM; in the assay on OVCAR-4 ovarian it was > 100 µM; in the assay on SK-MEL-2 melanoma, > 100 µM. Besides, the TGI with SN12C renal is 91 µM; with SW-620 colon, > 100 µM; with UACC-62 melanoma, > 100 µM.

For the molecule `COC(=O)C1=C2C3=C(C(=O)c4ccccc4C3=O)N(Cc3ccccc3)C2(OC(C)=O)C=CC1=O` (centres undefined), the GI50 was 14.1 µM in the assay with HCT-15 colon; 16.5 µM in the assay on IGROV1 ovarian; 0.846 µM with MOLT-4 leukemia; 11.6 µM in the assay with NCI-H226 lung; 34.4 µM with OVCAR-4 ovarian; 42.5 µM in the assay on SK-MEL-2 melanoma. Moreover, the GI50 in the assay with SN12C renal is 6.78 µM; with SW-620 colon, 17.2 µM; with UACC-62 melanoma, 10.6 µM. In addition, the TGI in the assay with HCT-15 colon is 53.9 µM; with IGROV1 ovarian, > 100 µM; with MOLT-4 leukemia, > 100 µM; in the assay on NCI-H226 lung, 32.6 µM; in the assay with OVCAR-4 ovarian, > 100 µM; in the assay with SK-MEL-2 melanoma, > 100 µM. For the same molecule, the values for the TGI in the assay on SN12C renal, in the assay on SW-620 colon and in the assay with UACC-62 melanoma were 30.2 µM, 94 µM and 32.7 µM, respectively.

Turning to `Cc1cc(NC(=O)NC(=O)c2ccccc2[N+](=O)[O-])ccc1Oc1ncc(Cl)cn1`, the TGI in the assay on HCT-15 colon was > 100 µM; in the assay with IGROV1 ovarian it was 98.9 µM; with LOX IMVI melanoma it was > 100 µM; in the assay with MOLT-4 leukemia, > 100 µM; in the assay on NCI-H226 lung, 12.8 µM; with OVCAR-4 ovarian it was 31.3 µM. Also, the results for the TGI in the assay on SN12C renal, in the assay with SW-620 colon and in the assay with UACC-62 melanoma were > 81.6 µM, > 100 µM and > 31.6 µM, respectively.

Regarding `Cc1cc(=O)[nH]c(CNC(=O)c2cccc3ccccc23)n1`, the TGI in the assay with HCT-15 colon, with IGROV1 ovarian, in the assay with LOX IMVI melanoma, in the assay with MOLT-4 leukemia, in the assay with NCI-H226 lung and in the assay with OVCAR-4 ovarian was > 100 µM in each case. In addition, the TGI in the assay on SN12C renal, in the assay with SW-620 colon and in the assay with UACC-62 melanoma was > 100 µM in each case.

For `O=S1(=O)COc2ccccc2-c2ncncc21`, the TGI in the assay on HCT-15 colon, in the assay on IGROV1 ovarian, in the assay with LOX IMVI melanoma, with MOLT-4 leukemia, with NCI-H226 lung and in the assay with OVCAR-4 ovarian was > 100 µM in each case. For the same molecule, the TGI in the assay with SN12C renal, in the assay on SW-620 colon and in the assay on UACC-62 melanoma was > 100 µM in each case.
